Measured values taken from patent publication US11072806B2, “Gadusol production” (Oregon State University, priority 2018, dated 2021).
Where two headings read alike, the source gives them in different places.

Columns and labels:
[1] = cited from earlier work; for λmax: enol form at lower pH, enolate form at neutral and basic pH
[2] = tested on: rad1Δ yeast mutant; assay: UVB irradiation of UVB-sensitive rad1Δ yeast mutant suspended in gadusol-containing supernatant; format: cell-based, S. cerevisiae; conditions: cells at 10^7 cells/mL in 9-fold concentrated supernatant, UVB (302 nm), spotted on YEPD, 24 h at 30° C.
Text: (§1) While it would be possible to harvest gadusol from naturally occurring sources, this would not be economical for producing the quantities of gadusol needed for commercially relevant sunscreen products. To overcome this and other problems, the inventors have developed methods and compositions that allow for the high efficiency production of gadusol in microorganism host cells, such as yeast. Expressing the biosynthetic genes for gadusol in microorganisms, such as yeast, provides an opportunity to leverage in-depth knowledge of yeast biochemistry to generate a sustainable process. […] The mutant was cultured in YNB+2% glucose supplemented with leucine and lysine at 30° C. for 2 days. […] In 20 ml cultures (n=3), the recombinant yeast culture produced approximately 20 mg/I of gadusol after 5 days (FIG. 34). […] Large-scale production allows for the use of gadusol in pharmaceuticals, formulations, cosmetics or dietary formulations and products. By way of example, formulations may include pills/capsules, creams, lotions, or the like. In embodiments, the present disclosure provides for a synthetic gadusol having UV-protective activity. […] Cells were then irradiated with UVB and spotted in 3 μl aliquots (n=4) onto YEPD plates which were incubated at 30° C. for 24 h. […]

[3] = tested on: wild-type RAD1 strain (S288c); assay: UVB irradiation of wild-type (RAD1) yeast strain suspended in gadusol-containing supernatant; format: cell-based, S. cerevisiae; conditions: higher doses of UVB; cells in 9-fold concentrated supernatant
Text: as §1

[4] = in vitro; cited from earlier work
[5] = Arbeloa et al. 2011, at respective absorbance maxima

SMILES: COC1=C(O)CC(O)(CO)C(O)C1=O (stereo not shown) [gadusolate]
- extinction coefficient [1, 5]: 21,800 M^−1 cm^−1
- quantum yield of photodecomposition relative to gadusol ([1]; Arbeloa et al. 2011): 260 times
- photostability ([1]; compared to gadusol): more photostable
- λmax ([1]; Plack et al. 1981): 296 nm

SMILES: COC1=C(O)CC(O)(CO)C(O)C1=O (stereo not shown) [gadusol, 3,5,6-trihydroxy-5-hydroxymethyl-2-methoxycyclohex-2-en-1-one]
- UVB sensitivity of rad1Δ yeast mutant [2]: suppresses the UVB sensitivity
- UVB tolerance of wild-type (RAD1) strain [3]: increases UVB tolerance
- extinction coefficient [1, 5]: 12,400 M^−1 cm^−1
- λmax ([1]; Plack et al. 1981): 269 nm
- extinction coefficient ([1]; pH 7 in 50 mM phosphate, Plack et al. 1981): 21,800 M^−1 cm^−1
- antioxidant activity [4]: exhibit antioxidant activity in vitro
